Reference: US5559144A, “Furyl and thienyl alkynyl-N-hydroxy urea derivatives” (Abbott Laboratories, priority 1995, dated 1996)

How the values were obtained:
[1] = target: T1, 5-Lipoxygenase from RBL-1 20,000xg Supernatant (Rattus norvegicus, UniProt P12527); assay: 5-lipoxygenase inhibitory activity, 20,000 xg supernatant from homogenized RBL-1 cells; assay type: biochemical; conditions: radiolabeled arachidonic acid, triplicate
T1 construct: 20,000 xg supernatant from 1.5 million homogenized RBL-1 cells; endogenous in cells; host or cells: RBL-1 cells (20,000 xg supernatant of homogenate)
T1 sequence (P12527 1-673): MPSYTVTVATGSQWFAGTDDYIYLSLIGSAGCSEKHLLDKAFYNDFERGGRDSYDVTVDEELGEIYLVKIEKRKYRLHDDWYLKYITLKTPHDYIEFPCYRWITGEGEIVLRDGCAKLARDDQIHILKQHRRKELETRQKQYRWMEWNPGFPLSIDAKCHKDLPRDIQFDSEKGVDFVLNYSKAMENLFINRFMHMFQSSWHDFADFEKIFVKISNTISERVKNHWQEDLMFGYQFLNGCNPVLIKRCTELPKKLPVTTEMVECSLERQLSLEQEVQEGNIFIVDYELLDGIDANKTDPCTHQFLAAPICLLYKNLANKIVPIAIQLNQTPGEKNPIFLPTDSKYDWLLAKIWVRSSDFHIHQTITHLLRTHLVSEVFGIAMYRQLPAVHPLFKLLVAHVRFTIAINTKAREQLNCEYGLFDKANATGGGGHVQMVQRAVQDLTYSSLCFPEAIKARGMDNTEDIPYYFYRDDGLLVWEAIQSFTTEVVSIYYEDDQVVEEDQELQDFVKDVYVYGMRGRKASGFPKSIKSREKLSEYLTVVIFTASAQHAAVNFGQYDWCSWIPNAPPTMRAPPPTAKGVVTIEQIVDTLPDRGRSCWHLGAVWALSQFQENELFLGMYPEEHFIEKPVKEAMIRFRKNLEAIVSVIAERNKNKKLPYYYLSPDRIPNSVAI
Procedure: Assays to determine 5-lipoxygenase inhibitory activity of representative compounds of the present invention were performed in […] incubations containing the 20,000 xg supernatant from 1.5 million homogenized RBL-1 cells and various concentrations of the test compound. Reactions were initiated by addition of radiolabeled arachidonic acid and terminated by acidification and ether extraction. Reaction products were separated from nonconverted substrate by thin layer chromatography and measured by liquid scintillation spectroscopy. All incubations are performed in triplicate. Inhibition of 5-lipoxygenase activity was calculated as the ratio of the amount of product formed in the presence and absence of inhibitor. […] (Dyer, R. D.; Haviv, F.; Hanel, A. M.; Bornemier, D. A.; Carter, G. W. Fed. Proc., Fed. Am. Soc. Exp. Biol. 1984, 43, 1462A).

[2] = system: Leukotrienes (biosynthesis); assay: Inhibition of leukotriene biosynthesis in vivo after oral administration, rat peritoneal anaphylaxis model; conditions: 1 h, gavage one hour prior to antigen challenge, read-out: Percent Inhibition of Leukotrienes; for inhibition in vivo at 100 µmol/kg: Oral Dose at 100 μmol/kg; for inhibition in vivo at 30 µmol/kg: Oral Dose at 30 μmol/kg
Procedure: Inhibition of the biosynthesis of leuktrienes in vivo after oral administration of compound was determined using a rat peritoneal anaphylaxis model in a similar manner as that described by Young and coworkers (Young, P. R.; Dyer, R. D.; Carter, G. W. Fed. Proc., Fed. Am. Soc. Exp. Biol. 1985, 44, 1185). In this model rats were injected intraperitoneally (ip) with rabbit antibody to bovine serum albumin (BSA) and three hours later injected ip with BSA to induce an antgen-antibody response. Rats were sacrificed 15 minutes after this challenge and the peritoneal fluids were collected and analyzed for leukotriene levels. Test compounds were administered by gavage one hour prior to the antigen challenge. Percent inhibition values were determined by comparing the treatment group to the mean of the control group.

Compound | IC50 [1] | inhibition in vivo at 100 µmol/kg [2] | inhibition in vivo at 30 µmol/kg [2]
CC(C#CCc1ccccc1)N(O)C(N)=O (centres unmarked) [Example 30, N-Hydroxy-N-(5-phenyl-3-pentyn-2-yl)urea] | 2100 nM | 95% | –
NC(=O)N(O)CC#Cc1ccccc1 [Example 32, N-Hydroxy-N,(3,phenyl-2-propynyl)urea] | 5900 nM | 97% | –
NC(=O)N(O)CC#Cc1cccc(Oc2ccccc2)c1 [Example 33, N-Hydroxy-N-[3-(3-phenoxyphenyl)-2-propynyl]urea] | 500 nM | 99% | –
CC(C#Cc1ccoc1)N(O)C(N)=O (centres unmarked) [Example 34, N-Hydroxy-N-[4-(3-furyl)-3-butyn-2-yl]urea] | 7000 nM | 96% | –
Cc1ccc(Oc2cccc(C#CCN(O)C(N)=O)c2)cc1 [Example 36, N-Hydroxy-N-[3-[3-(4-methylphenoxy)phenyl]-2-propynyl]urea] | 600 nM | 99% | –
COc1ccc(Oc2cccc(C#CCN(O)C(N)=O)c2)cc1 [Example 39] | 600 nM | 96% | –
CC(C#Cc1cccc(Oc2ccc(Cl)cc2)c1)N(O)C(N)=O (centres unmarked) [Example 42, N-Hydroxy-N-[4-[3-(4-chlorophenoxy)phenyl]-3-butyn-2-yl]urea] | 500 nM | 66% | –
CC(C#Cc1cccc(Oc2ccc(F)cc2)c1)N(O)C(N)=O (centres unmarked) [Example 43, N-Hydroxy-N-[4-[3-(4-fluorophenoxy)phenyl]-3-butyn-2-yl]urea] | 300 nM | 98% | –
NC(=O)N(O)CC#Cc1cccc(Oc2ccc(F)cc2)c1 [Example 44, N-Hydroxy-N-[3-[3-(4-fluorophenoxy)phenyl]-2-propynyl]urea] | 400 nM | 99% | –
CC(C#Cc1cccc(Oc2ccncc2)c1)N(O)C(N)=O (centres unmarked) [Example 46, N-Hydroxy-N-[4-[3-(4-pyridinyloxy)phenyl]-3-butyn-2-yl]urea] | 1200 nM | 98% | –
CC(C#Cc1cccc(Oc2ccccn2)c1)N(O)C(N)=O (centres unmarked) [Example 47, N-Hydroxy-N-[4-[3-(2-pyridinyloxy)phenyl]-3-butyn-2-yl]urea] | 900 nM | 99% | –
CC(C#Cc1ccc(Oc2ccc(F)cc2)o1)N(O)C(N)=O (centres unmarked) [Example 57, N-hydroxy-N-{4-[5-(4-fluorophenoxy)-2-furyl]-3-butyn-2-yl}urea] | 200 nM | – | 83%
CC(C#Cc1ccc(Oc2ccccc2)o1)N(O)C(N)=O (centres unmarked) [Example 58, N-hydroxy-N-[4-(5-phenoxy-2-furyl)-3-butyn-2-yl]urea] | 200 nM | – | 83%
CC(C#Cc1ccc(Sc2ccccc2)o1)N(O)C(N)=O (centres unmarked) [Example 59, N-hydroxy-N-[4-(5-thiophenoxy-2-furyl)-3-butyn-2-yl]urea] | 200 nM | – | 62%
Cc1ccc(Oc2ccc(C#CC(C)N(O)C(N)=O)o2)cc1 (centres unmarked) [Example 62, N-hydroxy-N-{4-[5-(4-methylphenoxy)-2-furyl]-3-butyn-2-yl}urea] | 300 nM | – | 65%
CCC(C#Cc1cccc(Oc2ccccn2)c1)N(O)C(N)=O (centres unmarked) [Example 64, N-Hydroxy-N-[5-[3-(2-pyridinyloxy)phenyl]-4-pentyn-3-yl]urea] | 600 nM | – | 78%
CC(C#Cc1cccc(Oc2nccs2)c1)N(O)C(N)=O (centres unmarked) [Example 66, N-Hydroxy-N-[4-[3-(2-thiazolyloxy)phenyl]-3-butyn-2-yl]urea] | 500 nM | – | 40%
Cc1cccc(Oc2cccc(C#CC(C)N(O)C(N)=O)c2)n1 (centres unmarked) [Example 67, N-Hydroxy-N-[4-[3-(6-methylpyridin-2-yloxy)phenyl]-3-butyn-2-yl]urea] | 300 nM | – | 56%
CC(C#Cc1cccc(Oc2cccc(Cl)n2)c1)N(O)C(N)=O (centres unmarked) [Example 68, N-Hydoxy-N-[4-[3-(6-chloropyridin-2-yloxy)phenyl]-3-butyn-2-yl]urea] | 200 nM | – | 61%
